Some test systems named below: XF 498 CNS; LXFL 529 NSCLC; KM20L2 colon; DMS 273 small cell lung; RXF-631 renal; DLD-1 colon; SNB-78 CNS; DMS 114 small cell lung; MDA-N; P388/ADR leukemia; SN12K1 renal.
What all share (assay): NCI tumour cell line growth inhibition, 48 h

Where “and” joins values, the source holds several entries; their conditions need not be identical. Equal entries are not always repeated.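 48-hour exposure; five concentrations; linearly interpolated endpoints. Abbreviation: GI50, concentration required for 50% inhibition of growth. TGI is the concentration that stops growth completely.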 Bounds are passed on as bounds.

Data on eleven compounds can be found in PubChem BioAssay (NCI).

Turning to `COC(=O)C1=C(CS(=O)c2ccc([N+](=O)[O-])cc2[N+](=O)[O-])ON(C)C1c1ccccc1` (stereo unspecified), the TGI in the assay with XF 498 CNS is more than 100 µM; in the assay with LXFL 529 NSCLC, more than 92.8 µM; with KM20L2 colon it was more than 72.6 µM; in the assay with DMS 273 small cell lung, more than 80.6 µM; in the assay on RXF-631 renal, more than 100 µM; with DLD-1 colon, more than 100 µM. For the same compound, the TGI in the assay with SNB-78 CNS is more than 96.5 µM; with DMS 114 small cell lung it was more than 66.4 µM.
In the case of `Brc1ccccc1C=NC12CC3CC(CC(C3)C1)C2`, the TGI in the assay with XF 498 CNS, in the assay on LXFL 529 NSCLC, with KM20L2 colon, in the assay with DMS 273 small cell lung, with RXF-631 renal and with DLD-1 colon was more than 100 µM throughout. Moreover, the figures for the TGI with SNB-78 CNS, with DMS 114 small cell lung and with MDA-N were more than 100 µM, more than 100 µM and more than 73.8 µM, respectively.
Consider `COC1=C2C[C@@H](C)C[C@@H](OC)[C@@H](O)[C@H](C)/C=C(\C)[C@@H](OC(N)=O)[C@H](OC)/C=C\C=C(/C)C(=O)NC(=CC1=O)C2=O`, for which the GI50 with XF 498 CNS was 0.0356 µM; in the assay on KM20L2 colon, less than 0.0347 µM; in the assay with DLD-1 colon, 0.131 µM; in the assay with SNB-78 CNS, 0.859 µM; with MDA-N it was 0.00577 µM. Moreover, the TGI in the assay with XF 498 CNS is 1.13 µM and 0.853 µM; in the assay with LXFL 529 NSCLC, 14.1 µM; in the assay on KM20L2 colon, 0.99 µM and 0.886 µM; in the assay on P388/ADR leukemia it was 1.47 µM; in the assay with DMS 273 small cell lung, 2.05 µM; in the assay with RXF-631 renal, 3.35 µM. Besides, the TGI was 9.63 µM and 3.15 µM in the assay with DLD-1 colon; 11.7 µM and 7.42 µM in the assay with SNB-78 CNS; 2.14 µM with DMS 114 small cell lung; 8.51 µM in the assay with MDA-N; 2.51 µM in the assay with SN12K1 renal.
For the compound `CCOC(=O)C(=O)Nc1c(C)cccc1C(C)C`, the TGI in the assay on XF 498 CNS, in the assay on LXFL 529 NSCLC, in the assay on KM20L2 colon, in the assay with DMS 273 small cell lung, in the assay on RXF-631 renal and in the assay with DLD-1 colon was more than 100 µM throughout. The TGI with SNB-78 CNS and in the assay with DMS 114 small cell lung was more than 100 µM each time.
`O=NN/C(=C1\Nc2ccc([N+](=O)[O-])cc2NC1=O)C(O)c1ccc([N+](=O)[O-])cc1` (stereo unspecified): the TGI in the assay with XF 498 CNS, in the assay on LXFL 529 NSCLC, in the assay on KM20L2 colon, in the assay with DMS 273 small cell lung, with RXF-631 renal and in the assay with DLD-1 colon was more than 100 µM throughout. Besides, the TGI in the assay with SNB-78 CNS and in the assay with DMS 114 small cell lung was more than 100 µM throughout.
As to `COC(=O)C1=C(c2ccc3c(c2)OCO3)OC(c2ccc3c(c2)OCO3)C1` (stereo unspecified), the TGI in the assay on XF 498 CNS, with LXFL 529 NSCLC, in the assay with KM20L2 colon, with DMS 273 small cell lung, in the assay with RXF-631 renal and in the assay on DLD-1 colon was more than 100 µM throughout. Moreover, the TGI in the assay with SNB-78 CNS and in the assay on DMS 114 small cell lung was more than 100 µM in each case.
On to `CCC[CH2][Sn]1([CH2]CCC)[O]CC(CN2CCOCC2)[O]1` (stereo unspecified), for which the GI50 was 1.62 µM in the assay on XF 498 CNS; 1.11 µM in the assay with LXFL 529 NSCLC; 5.35 µM in the assay with KM20L2 colon; 3.15 µM in the assay with DMS 273 small cell lung; 1.41 µM with RXF-631 renal; 4.46 µM in the assay on DLD-1 colon. In addition, the GI50 in the assay on SNB-78 CNS is 2.12 µM; in the assay on DMS 114 small cell lung, 1.36 µM. Besides, the TGI was found to be 3.11 µM in the assay on XF 498 CNS; 2.47 µM in the assay on LXFL 529 NSCLC; 19.1 µM in the assay on KM20L2 colon; 12 µM with DMS 273 small cell lung; 2.71 µM with RXF-631 renal; 16.8 µM with DLD-1 colon. Further, the TGI in the assay with SNB-78 CNS is 6.36 µM; in the assay with DMS 114 small cell lung it was 4.35 µM.
As to `CN(C)C1=NC2=S(SC(Nc3ccccc3)=N2)S1` (stereo unspecified), the TGI in the assay with XF 498 CNS was 50.5 µM; in the assay with LXFL 529 NSCLC, 62.9 µM; in the assay with KM20L2 colon, more than 100 µM; in the assay on DMS 273 small cell lung it was 66 µM; in the assay with RXF-631 renal it was more than 100 µM; in the assay with DLD-1 colon it was more than 100 µM. In addition, the results for the TGI in the assay on SNB-78 CNS and in the assay on DMS 114 small cell lung were more than 100 µM and 42.6 µM, respectively.
For `CC(C)NC(=O)OCc1c(COC(=O)NC(C)C)c(-c2ccc(Cl)c(Cl)c2)n2c1CCC2`, the TGI with XF 498 CNS is more than 62.1 µM; in the assay on LXFL 529 NSCLC, 16.3 µM; in the assay on KM20L2 colon, 58.7 µM; with P388/ADR leukemia, more than 100 µM; in the assay with DMS 273 small cell lung it was more than 67 µM; in the assay on DLD-1 colon, more than 72.3 µM. Besides, the TGI was 41.9 µM with SNB-78 CNS, 57.4 µM with DMS 114 small cell lung and more than 100 µM in the assay with SN12K1 renal.
Regarding `OCC1OC(n2cnc3c2NC=NC[C@H]3O)CC1O` (stereo partly specified), the TGI was 498 µM in the assay on XF 498 CNS; more than 588 µM in the assay on LXFL 529 NSCLC; more than 588 µM with KM20L2 colon; 448 µM in the assay on P388/ADR leukemia; 500 µM and > 588 µM with DMS 273 small cell lung; 500 µM and > 588 µM with RXF-631 renal. Also, the TGI in the assay with DLD-1 colon was 500 µM and > 588 µM; with SNB-78 CNS, 500 µM and > 588 µM; with DMS 114 small cell lung, 455 µM and > 588 µM; with MDA-N, more than 500 µM; in the assay on SN12K1 renal, 467 µM. The GI50 with LXFL 529 NSCLC was more than 588 µM; in the assay on KM20L2 colon it was more than 588 µM; in the assay with DMS 273 small cell lung it was more than 588 µM; with RXF-631 renal, 158 µM and > 588 µM; with DLD-1 colon it was more than 588 µM; in the assay on SNB-78 CNS, more than 588 µM. Besides, the GI50 in the assay with DMS 114 small cell lung was more than 588 µM.
As to `CC1=NC(C(C)C)C(=O)O1` (stereo unspecified), the TGI in the assay with XF 498 CNS, with LXFL 529 NSCLC, in the assay with KM20L2 colon, in the assay on DMS 273 small cell lung, in the assay with RXF-631 renal and with DLD-1 colon was more than 100 µM each time. Besides, the TGI with SNB-78 CNS is more than 100 µM; in the assay with DMS 114 small cell lung it was 56.2 µM.
